Test results reported in PMC9119168 (Antiviral Research, 2022).

Experiments:
[1] = target: MERS-CoV Mac1 (Middle East respiratory syndrome-related coronavirus, UniProt K9N7C7); assay type: binding; settings: read-out: IC50 AS MERS
[2] = target: SARS-CoV Mac1 (Severe acute respiratory syndrome coronavirus, UniProt P0C6X7); assay type: binding; settings: read-out: AS assay IC50 SARS-CoV
[3] = target: T1, SARS-CoV-2 Mac1 (Severe acute respiratory syndrome coronavirus 2, UniProt P0DTD1); experiment: Differential scanning fluorimetry; assay type: binding
[4] = target: T1, SARS-CoV-2 Mac1; settings: read-out: IC50 Mac1 mono-ARH activity; ref Dasovich et al., 2022; cited from earlier work
[5] = test system: mammalian cells; settings: cited from earlier work
[6] = test system: Mac1; settings: ref Ni et al., 2021; cited from earlier work

Chain of MERS-CoV Mac1 (K9N7C7 1110-1276 limits assumed): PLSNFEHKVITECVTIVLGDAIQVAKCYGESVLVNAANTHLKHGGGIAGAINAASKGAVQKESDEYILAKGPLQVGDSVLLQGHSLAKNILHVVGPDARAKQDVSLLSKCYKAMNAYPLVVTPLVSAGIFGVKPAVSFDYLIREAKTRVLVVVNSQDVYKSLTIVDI

For Nc1ncnc2c1ncn2[C@@H]1O[C@H](COP(=O)(O)OP(=O)(O)OC[C@H]2OC(O)[C@H](O)[C@@H]2O)[C@@H](O)[C@H]1O (stereo partly drawn) [ADP-ribose], the IC50 [1] was 1250 ± 230 nM and the IC50 [2] was 240 nM.
In the case of Nc1ncnc2c1ncn2[C@@H]1O[C@H](COP(=O)(O)OP(=O)(O)OP(=O)(O)O)[C@@H](O)[C@H]1O [ATP], the “thermal shift of Mac1 in DSF (in words)” value [3] is reported as “no effect”.
In the case of Cc1nc(Nc2ncc(C(=O)Nc3c(C)cccc3Cl)s2)cc(N2CCN(CCO)CC2)n1 [Dasatinib], the IC50 [4] is listed as roughly 50000 nM and the “toxicity to mammalian cells (in words)” value [5] is listed as “toxic to mammalian cells”.
For N#C[C@@]1(c2ccc3c(N)ncnn23)O[C@H](CO)[C@@H](O)[C@H]1O [GS-441524], the “binding to Mac1 (in words)” value [6] is listed as “bound to Mac1”.
